In ChEMBL document CHEMBL4339244, “Clavariopsins C-I, Antifungal Cyclic Depsipeptides from the Aquatic Hyphomycete Clavariopsis aquatica” (J Nat Prod, 2019):
pIC50: −log10 of the molar value. The source made the active and inactive calls. The rule behind the calls is not given here.

How the values were obtained:
[1] = system: Colletotrichum orbiculare; assay: Antifungal activity against Colletotrichum orbiculare assessed as inhibition of microbial growth by measuring minimum inhibitory dose per disc inducing visually distinct inhibition zone between the paper disk and colony front by paper disk based assay; type: functional, organism-based
Botrytis cinerea = assay: Antifungal activity against Botrytis cinerea assessed as inhibition of microbial growth by measuring minimum inhibitory dose per disc inducing visually distinct inhibition zone between the paper disk and colony front by paper disk based assay; type: functional
Alternaria alternata = assay: Antifungal activity against Alternaria alternata assessed as inhibition of microbial growth by measuring minimum inhibitory dose per disc inducing visually distinct inhibition zone between the paper disk and colony front by paper disk based assay; type: functional
HeLa S3 = assay: Cytotoxicity in human HeLaS3 cells assessed as reduction in cell viability incubated for 48 hrs by MTT assay; type: functional, cell-based; conditions: HeLa S3, 48 h
Fusarium oxysporum = assay: Antifungal activity against Fusarium oxysporum assessed as inhibition of microbial growth by measuring minimum inhibitory dose per disc inducing visually distinct inhibition zone between the paper disk and colony front by paper disk based assay; type: functional, organism-based
Pyricularia oryzae = assay: Antifungal activity against Magnaporthe oryzae assessed as inhibition of microbial growth by measuring minimum inhibitory dose per disc inducing visually distinct inhibition zone between the paper disk and colony front by paper disk based assay; type: functional, organism-based
Aspergillus niger [2] = assay: Antifungal activity against Aspergillus niger assessed as inhibition of microbial growth by measuring minimum inhibitory dose per disc inducing visually distinct inhibition zone between the paper disk and colony front by paper disk based assay; type: functional, organism-based
Aspergillus niger [3] = assay: Induction of hyphal malformation in Aspergillus niger assessed as minimum effective dose per disc results in obvious morphological changes incubated for 16 hrs by phase contrast microscopy; type: functional

SMILES	inhibition [1]	MID (Botrytis cinerea) [µg]	MID (Alternaria alternata) [µg]	pIC50 (HeLa S3)	inhibition (Fusarium oxysporum)	inhibition (Pyricularia oryzae)	inhibition (Aspergillus niger [2])	MED (Aspergillus niger [3]) [µg]
CC[C@H](C)[C@H]1C(=O)N(C)[C@@H](C(C)C)C(=O)NCC(=O)N(C)[C@@H](C(C)C)C(=O)N[C@@H](Cc2ccc(OC)cc2)C(=O)O[C@H](C(C)C)C(=O)N2CCCC[C@H]2C(=O)N(C)[C@@H](C(C)C)C(=O)N[C@@H](C(C)C)C(=O)N(C)[C@@H](CC(=O)O)C(=O)N1C	Active	0.01 to 0.3	0.03 to 0.3	< 5.00	Active	Active	Active	0.3
CC[C@H](C)[C@H]1C(=O)NCC(=O)N(C)[C@@H](C(C)C)C(=O)N[C@@H](Cc2ccc(OC)cc2)C(=O)O[C@H](C(C)C)C(=O)N2CCCC[C@H]2C(=O)N(C)[C@@H](C(C)C)C(=O)N[C@@H](C(C)C)C(=O)N(C)[C@@H](CC(=O)O)C(=O)N(C)[C@@H](C(C)C)C(=O)N1C	Active	0.01 to 0.3	0.01	< 5.00	Active	Active	Active	0.3
CC[C@H](C)[C@H]1C(=O)NCC(=O)N(C)[C@@H](C(C)C)C(=O)N[C@@H](Cc2ccc(OC)cc2)C(=O)O[C@H](C(C)C)C(=O)N2CCCC[C@H]2C(=O)N(C)[C@@H](C(C)C)C(=O)N[C@@H](C(C)C)C(=O)N(C)[C@@H](CC(=O)O)C(=O)N(C)[C@@H](CC(C)C)C(=O)N1C	Active	0.01 to 0.3	0.03 to 0.3	< 5.00	Active	Active	Active	0.3
CC[C@H](C)[C@H]1C(=O)NCC(=O)N(C)[C@@H](C(C)C)C(=O)N[C@@H](Cc2ccc(OC)cc2)C(=O)O[C@H](C(C)C)C(=O)N2CCC[C@H]2C(=O)N(C)[C@@H](C(C)C)C(=O)N[C@@H](C(C)C)C(=O)N(C)[C@@H](CC(=O)O)C(=O)N(C)[C@@H]([C@@H](C)CC)C(=O)N1C	Active	0.01 to 0.3	0.03 to 0.3	< 5.00	Active	Active	Active	0.3
CC[C@H](C)[C@H]1C(=O)NCC(=O)N(C)[C@@H](C(C)C)C(=O)N[C@@H](Cc2ccc(OC)cc2)C(=O)O[C@H](C(C)C)C(=O)N2CCCC[C@H]2C(=O)N[C@@H](C(C)C)C(=O)N[C@@H](C(C)C)C(=O)N(C)[C@@H](CC(=O)O)C(=O)N(C)[C@@H]([C@@H](C)CC)C(=O)N1C	Active	0.01 to 0.3	0.03 to 0.3	< 5.00	Active	Active	Active	3
CC[C@H](C)[C@H]1C(=O)NCC(=O)N(C)[C@@H](C(C)C)C(=O)N[C@@H](Cc2ccc(OC)cc2)C(=O)O[C@H](C(C)C)C(=O)N2CCCC[C@H]2C(=O)N(C)[C@@H](C(C)C)C(=O)N[C@@H](CC(C)C)C(=O)N(C)[C@@H](CC(=O)O)C(=O)N(C)[C@@H]([C@@H](C)CC)C(=O)N1C	Active	0.01 to 0.3	0.03 to 0.3	< 5.00	Active	Active	Active	3
CC[C@H](C)[C@H]1C(=O)N(C)[C@@H](CC(C)C)C(=O)NCC(=O)N(C)[C@@H](C(C)C)C(=O)N[C@@H](Cc2ccc(OC)cc2)C(=O)O[C@H](C(C)C)C(=O)N2CCCC[C@H]2C(=O)N(C)[C@@H](C(C)C)C(=O)N[C@@H](C(C)C)C(=O)N(C)[C@@H](CC(=O)O)C(=O)N1C	Active	0.01 to 0.3	0.03 to 0.3	< 5.00	Active	Active	Active	0.3
CC[C@H](C)[C@@H]1NC(=O)[C@H]([C@@H](C)CC)N(C)C(=O)[C@H](CC(=O)O)N(C)C(=O)[C@H](C(C)C)NC(=O)[C@H](C(C)C)N(C)C(=O)[C@@H]2CCCCN2C(=O)[C@@H](C(C)C)OC(=O)[C@H](Cc2ccc(OC)cc2)NC(=O)[C@H](C(C)C)N(C)C(=O)CNC1=O	Active	0.01 to 0.3	0.01	< 5.00	Active	Active	Active	0.3
CC[C@H](C)[C@H]1C(=O)NCC(=O)N(C)[C@@H](C(C)C)C(=O)N[C@@H](Cc2ccc(OC)cc2)C(=O)O[C@H](C(C)C)C(=O)N2CCCC[C@H]2C(=O)N(C)[C@@H](C(C)C)C(=O)N[C@@H](C(C)C)C(=O)N(C)[C@@H](CC(=O)O)C(=O)N(C)[C@@H]([C@@H](C)CC)C(=O)N1C	Active	0.01 to 0.3	0.01	< 5.00	Active	Active	Active	0.3
